Measured values reported in US20240173419A1, “CDK2 DEGRADERS AND USES THEREOF” (Kymera Therapeutics, Inc., priority 2022, published 2024).

Biological target: T1, CDK2 (Homo sapiens, UniProt P24941)
T1 construct: endogenous in cells; host or cells: MKN1 cells
Test: CDK2 degradation in MKN1 cells (AlphaLISA)
Type: cell-based
Design: key to CDK2 degradation 14 h: Mean external-Abs DC50 (nM): A (<100 nM); B (≥100-500 nM); C (>500-1000 nM); D (>1000 nM); E (not achieved)
Conditions: 14 h incubation; for DC50: read-out: CDK2 degradation 14 h: Mean external-Abs DC50
In short: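 DC50 from four-parameter logistic fit of AlphaLISA CDK2 signal, corrected for no-cell wells. Lysates came from MKN1 cells, 2e4 per well, exposed 14 h at 37° C to compound at 0.001 nM-10 μM (1:5 series, 11 doses) in 0.1% DMSO.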

CDK2 degradation 14 h: Average Dmax % | CDK2 degradation 14 h: Mean external-Abs DC50 (nM) | DC50 [nM] | SMILES
A (A (>75% o)) |  | < 100 | Cc1cc(S(=O)(=O)NCCOC2CCC3(CC2)CCN(CCCc2ccc4c(c2)n(C)c(=O)n4C2CCC(=O)NC2=O)CC3)ccc1Nc1ncc2ccc(=O)n(C3CCCC3)c2n1 (stereo not shown) [I-470]
A (A (>75% o)) |  | < 100 | Cc1cc(S(=O)(=O)NCCOC2CC3(C2)CN(CCCc2ccc4c(c2)n(C)c(=O)n4C2CCC(=O)NC2=O)C3)ccc1Nc1ncc2ccc(=O)n(C3CCCC3)c2n1 (stereo not shown) [I-472]
A (A (>75% o)) |  | < 100 | Cc1cc(S(=O)(=O)NCCOC2CC3(C2)CN(CC#Cc2ccc4c(c2)n(C)c(=O)n4C2CCC(=O)NC2=O)C3)ccc1Nc1ncc2ccc(=O)n(C3CCCC3)c2n1 (stereo not shown) [I-473]
A (A (>75% o)) |  | < 100 | Cc1cc(NCCOCCOCCOCCOCCCc2cccc3c2n(C)c(=O)n3C2CCC(=O)NC2=O)ccc1Nc1ncc2cc(C(F)F)c(=O)n([C@@H]3CCC[C@]3(C)O)c2n1 (stereo partly shown) [I-490]
A (A (>75% o)) |  | < 100 | Cc1cc(S(=O)(=O)C2CC3(CCN(CC4CCN(c5ccc6c(c5F)n(C)c(=O)n6C5CCC(=O)NC5=O)CC4)CC3)C2)ccc1Nc1ncc(C(F)(F)F)c(N2CCC(C(C)(C)O)C2)n1 (stereo not shown) [I-505]
A (A (>75% o)) |  | < 100 | Cc1cc(S(=O)(=O)NCCOC2CCC(CN3CCC(c4ccc5c(c4F)n(C)c(=O)n5C4CCC(=O)NC4=O)CC3)CC2)ccc1Nc1ncc(C(F)(F)F)c(C2CCC(C)(O)CC2)n1 (stereo not shown) [I-515]
A (A (>75% o)) |  | < 100 | Cc1cc(S(=O)(=O)C2CC3(CCN(CC4CCN(c5ccc6c(c5F)n(C)c(=O)n6C5CCC(=O)NC5=O)CC4)CC3)C2)ccc1Nc1ncc(C(F)(F)F)c(N2CCCC(C)(O)C2)n1 (stereo not shown) [I-518]
B (B (>50% -75%)) |  | < 100 | Cc1cc(S(=O)(=O)NCCOC2CCC(CN3CCC(c4ccc5c(c4)n(C)c(=O)n5C4CCC(=O)NC4=O)CC3)CC2)ccc1Nc1ncc(C(F)(F)F)c(C2CCC(C)(O)CC2)n1 (stereo not shown) [I-519]
A (A (>75% o)) |  | < 100 | Cc1cc(S(=O)(=O)N2CCC(CN(C)C3CCN(c4cccc5c4n(C)c(=O)n5C4CCC(=O)NC4=O)CC3)CC2)ccc1Nc1ncc2c(n1)N(C1CCCC1)C(=O)C21CC1 (stereo not shown) [I-536]
A (A (>75% o)) |  | < 100 | Cc1cc(S(=O)(=O)NCCOC2CCC(CN3CCC(c4ccc5c(c4)n(C)c(=O)n5C4CCC(=O)NC4=O)CC3)CC2)ccc1Nc1ncc2c(n1)N(C1CCCC1)C(=O)C21CC1 (stereo not shown) [I-537]
A (A (>75% o)) |  | < 100 | Cc1cc(S(=O)(=O)NC2CC(N3CCN(CC4(F)CCN(c5cccc6c5n(C)c(=O)n6C5CCC(=O)NC5=O)CC4)CC3)C2)ccc1Nc1ncc(C(F)(F)F)c(N2CCCC(C)(O)C2)n1 (stereo not shown) [I-698]
A (A (>75% o)) |  | < 100 | Cc1cc(S(=O)(=O)NC2CC(N3CCCN(CC4CCN(c5cccc6c5n(C)c(=O)n6C5CCC(=O)NC5=O)CC4)CC3)C2)ccc1Nc1ncc(C(F)(F)F)c(N2CCCC(C)(O)C2)n1 (stereo not shown) [I-704]

Continued, compound first:

SMILES | CDK2 degradation 14 h: Average Dmax % | CDK2 degradation 14 h: Mean external-Abs DC50 (nM) | DC50 [nM]
Cc1cc(S(=O)(=O)NCCOCCOCCOCCOCCCc2ccc3c(c2)n(C)c(=O)n3C2CCC(=O)NC2=O)ccc1Nc1ncc2c(C)cc(=O)n(C3CCCC3)c2n1 (stereo not shown) [I-467] | C (C (>25% -50%)) | E | 
Cc1cc(S(=O)(=O)NCCOC2CCC(CN3CCC(c4ccc5c(c4)n(C)c(=O)n5C4CCC(=O)NC4=O)CC3)CC2)ccc1Nc1ncc2ccc(=O)n(C3CCCC3)c2n1 (stereo not shown) [I-468] | A (A (>75% o)) |  | < 100
Cc1cc(S(=O)(=O)NCCOC2CCC(N(C)CC3CCN(c4ccc5c(c4)n(C)c(=O)n5C4CCC(=O)NC4=O)CC3)CC2)ccc1Nc1ncc2ccc(=O)n(C3CCCC3)c2n1 (stereo not shown) [I-469] | A (A (>75% o)) |  | < 100
Cc1cc(S(=O)(=O)NCCOC2CCC3(CC2)CCN(CC#Cc2ccc4c(c2)n(C)c(=O)n4C2CCC(=O)NC2=O)CC3)ccc1Nc1ncc2ccc(=O)n(C3CCCC3)c2n1 (stereo not shown) [I-471] | A (A (>75% o)) |  | < 100
Cc1cc(S(=O)(=O)NCCOCCOCCOCCCc2ccc3c(c2)n(C)c(=O)n3C2CCC(=O)NC2=O)ccc1Nc1ncc2ccc(=O)n(C3CCCC3)c2n1 (stereo not shown) [I-474] | A (A (>75% o)) |  | < 100
Cc1cc(S(=O)(=O)NCCOCCOCCCc2ccc3c(c2)n(C)c(=O)n3C2CCC(=O)NC2=O)ccc1Nc1ncc2ccc(=O)n(C3CCCC3)c2n1 (stereo not shown) [I-475] | A (A (>75% o)) |  | < 100
Cc1cc(S(=O)(=O)NCCOCCOCCOCCOCCNc2cccc3c2C(=O)N(C2CCC(=O)NC2=O)C3=O)ccc1Nc1ncc2cc(C(F)F)c(=O)n(C3CCCC3(C)O)c2n1 (stereo not shown) [I-483] | A (A (>75% o)) |  | < 100
Cc1cc(S(=O)(=O)NCCOCCOCCCc2ccc3c(c2)n(C)c(=O)n3C2CCC(=O)NC2=O)ccc1Nc1ncc2cc(C(F)F)c(=O)n(C3CCCC3(C)O)c2n1 (stereo not shown) [I-484] | A (A (>75% o)) |  | < 100
Cc1cc(S(=O)(=O)NCCOCCOCCOCCOCCCc2ccc3c(c2)n(C)c(=O)n3C2CCC(=O)NC2=O)ccc1Nc1ncc2cc(C(F)F)c(=O)n(C3CCCC3(C)O)c2n1 (stereo not shown) [I-486] | A (A (>75% o)) |  | < 100
Cc1cc(S(=O)(=O)NCCOCCOCCCc2cccc3c2n(C)c(=O)n3C2CCC(=O)NC2=O)ccc1Nc1ncc2cc(C(F)F)c(=O)n([C@@H]3CCC[C@]3(C)O)c2n1 (stereo partly shown) [I-487] | A (A (>75% o)) |  | < 100
C[C@]1(O)CCC[C@H]1n1c(=O)c(C(F)F)cc2cnc(NC3CCN(C(=O)COCCOCCNc4cccc5c4C(=O)N(C4CCC(=O)NC4=O)C5=O)CC3)nc21 (stereo partly shown) [I-491] | D (D (<25%)) |  | > 1000
C[C@]1(O)CCC[C@H]1n1c(=O)c(C(F)F)cc2cnc(NC3CCN(C(=O)COCCOCCOCCOCCNc4cccc5c4C(=O)N(C4CCC(=O)NC4=O)C5=O)CC3)nc21 (stereo partly shown) [I-494] | D (D (<25%)) |  | > 1000
Cn1c(=O)n(C2CCC(=O)NC2=O)c2cccc(CCCOCCOCC(=O)N3CCC(Nc4ncc5cc(C(F)F)c(=O)n([C@@H]6CCC[C@]6(C)O)c5n4)CC3)c21 (stereo partly shown) [I-499] | D (D (<25%)) |  | > 1000
Cn1c(=O)n(C2CCC(=O)NC2=O)c2cccc(CCCOCCOCCOCCOCC(=O)N3CCC(Nc4ncc5cc(C(F)F)c(=O)n([C@@H]6CCC[C@]6(C)O)c5n4)CC3)c21 (stereo partly shown) [I-502] | D (D (<25%)) |  | > 1000
Cc1cc(S(=O)(=O)C2CC3(CCN(CC4CCN(c5ccc6c(c5F)n(C)c(=O)n6C5CCC(=O)NC5=O)CC4)CC3)C2)ccc1Nc1ncc(C(F)(F)F)c(N2CCCC(O)(C(F)F)C2)n1 (stereo not shown) [I-507] | B (B (>50% -75%)) |  | < 100
CCc1cnc(Nc2ccc(S(=O)(=O)C3CC4(CCN(CC5CCN(c6cccc7c6n(C)c(=O)n7C6CCC(=O)NC6=O)CC5)CC4)C3)cc2C)nc1C1CCC(C)(O)CC1 (stereo not shown) [I-514] | D (D (<25%)) |  | > 1000
Cc1cc(S(=O)(=O)C2CC3(CCN(CC4CCN(c5ccc6c(c5F)n(C)c(=O)n6C5CCC(=O)NC5=O)CC4)CC3)C2)ccc1Nc1ncc(C(F)(F)F)c(C2CCC(O)(C(C)C)CC2)n1 (stereo not shown) [I-516] | B (B (>50% -75%)) |  | > 1000
Cc1cc(S(=O)(=O)C2CC3(CCN(CC4CCN(c5ccc6c(c5F)n(C)c(=O)n6C5CCC(=O)NC5=O)CC4)CC3)C2)ccc1Nc1ncc2c(n1)N(C1CCCC1)C(=O)C2(C)C (stereo not shown) [I-524] | A (A (>75% o)) |  | < 100
Cc1cc(S(=O)(=O)C2CC3(CCN(CC4CCN(c5ccc6c(c5F)n(C)c(=O)n6C5CCC(=O)NC5=O)CC4)CC3)C2)ccc1Nc1ncc2c(n1)N(C1CCCC1)C(=O)C21CC1 (stereo not shown) [I-529] | A (A (>75% o)) |  | < 100
Cc1cc(S(=O)(=O)C2CC3(CCN(CC4CCN(c5ccc6c(c5F)n(C)c(=O)n6C5CCC(=O)NC5=O)CC4)CC3)C2)ccc1Nc1ncc2c(n1)N(C1CCCC(O)C1)C(=O)C21CC1 (stereo not shown) [I-609] | A (A (>75% o)) |  | < 100
Cc1cc(S(=O)(=O)NC2CC(N3CCN(CC4CCN(c5cccc6c5n(C)c(=O)n6C5CCC(=O)NC5=O)CC4)CC3)C2)ccc1Nc1ncc(C(F)(F)F)c(N2CCCC(C)(O)C2)n1 (stereo not shown) [I-663] | A (A (>75% o)) |  | < 100
Cc1cc(S(=O)(=O)NC2(C)CC(N3CCN(CC4CCN(c5ccc6c(c5F)n(C)c(=O)n6C5CCC(=O)NC5=O)CC4)CC3)C2)ccc1Nc1ncc(C(F)(F)F)c(N2CCCC(C)(O)C2)n1 (stereo not shown) [I-666] | A (A (>75% o)) |  | < 100
Cc1cc(S(=O)(=O)NC2CCC(N3CCN(CC4CN(c5cccc6c5n(C)c(=O)n6C5CCC(=O)NC5=O)C4)CC3)CC2)ccc1Nc1ncc(C(F)(F)F)c(N2CCCC(C)(O)C2)n1 (stereo not shown) [I-686] | A (A (>75% o)) |  | < 100
Cc1cc(S(=O)(=O)NC2CC(N3CCC4(CC3)CN(Cc3cccc5c3n(C)c(=O)n5C3CCC(=O)NC3=O)C4)C2)ccc1Nc1ncc(C(F)(F)F)c(N2CCCC(C)(O)C2)n1 (stereo not shown) [I-697] | A (A (>75% o)) |  | 100 to 500
Cc1cc(S(=O)(=O)NC2CC(N3CCC(F)(CN4CCC(c5cccc6c5n(C)c(=O)n6C5CCC(=O)NC5=O)CC4)CC3)C2)ccc1Nc1ncc(C(F)(F)F)c(N2CCCC(C)(O)C2)n1 (stereo not shown) [I-699] | A (A (>75% o)) |  | < 100
Cc1cc(S(=O)(=O)NC2CC(N3CCN(CC4CCN(c5ccc(NC6CCC(=O)NC6=O)cc5C)CC4)CC3)C2)ccc1Nc1ncc(C(F)(F)F)c(N2CCCC(C)(O)C2)n1 (stereo not shown) [I-712] | B (B (>50% -75%)) |  | < 100
